Measured values from patent US10246411B2, “(Z)-3,4,5-trimethoxystyrylbenzenesulfonamides as potential anticancer agents” (COUNCIL OF SCIENTIFIC & INDUSTRIAL RESEARCH, priority 2014, dated 2019).
Where two headings read alike, the source gives them in different places.

Tests used:
[1] = tested on: MDA-MB-435; assay: In vitro cytotoxicity (NCI protocol, SRB), MDA-MB-435 (breast panel line); conditions: Homo sapiens, MDA-MB-435, 48 h
[2] = tested on: CAKI-1; assay: In vitro cytotoxicity (NCI protocol, SRB), CAKI-1; conditions: Homo sapiens, CAKI-1, 48 h
[3] = tested on: IGROV1; assay: In vitro cytotoxicity (NCI protocol, SRB), IGROV1; conditions: Homo sapiens, IGROV-1, 48 h
[4] = tested on: NCI-H226; assay: In vitro cytotoxicity (NCI protocol, SRB), NCI-H226; conditions: Homo sapiens, NCI-H226, 48 h
[5] = tested on: UO-31; assay: In vitro cytotoxicity (NCI protocol, SRB), UO-31; conditions: Homo sapiens, UO-31, 48 h
[6] = tested on: HCC-2998; assay: In vitro cytotoxicity (NCI protocol, SRB), HCC-2998; conditions: Homo sapiens, HCC 2998, 48 h
[7] = tested on: SF-539; assay: In vitro cytotoxicity (NCI protocol, SRB), SF-539; conditions: Homo sapiens, 48 h
[8] = tested on: M14; assay: In vitro cytotoxicity (NCI protocol, SRB), M14; conditions: Homo sapiens, M14, 48 h
[9] = tested on: ACHN; assay: In vitro cytotoxicity (NCI protocol, SRB), ACHN; conditions: Homo sapiens, 48 h
[10] = tested on: KM12; assay: In vitro cytotoxicity (NCI protocol, SRB), KM12; conditions: Homo sapiens, KM12, 48 h
[11] = tested on: TK-10; assay: In vitro cytotoxicity (NCI protocol, SRB), TK-10; conditions: Homo sapiens, TK-10, 48 h
[12] = tested on: RPMI-8226; assay: In vitro cytotoxicity (NCI protocol, SRB), RPMI-8226; conditions: Homo sapiens, RPMI-8226, 48 h
[13] = tested on: CCRF-CEM; assay: In vitro cytotoxicity (NCI protocol, SRB), CCRF-CEM; conditions: Homo sapiens, 48 h
[14] = tested on: NCI-H23; assay: In vitro cytotoxicity (NCI protocol, SRB), NCI-H23; conditions: Homo sapiens, NCI-H23, 48 h
[15] = tested on: 786-0; assay: In vitro cytotoxicity (NCI protocol, SRB), 786-0; conditions: Homo sapiens, 786-0, 48 h
[16] = tested on: HOP92; assay: In vitro cytotoxicity (NCI protocol, SRB), HOP92; conditions: Homo sapiens, HOP-92, 48 h
[17] = tested on: LOX IMVI; assay: In vitro cytotoxicity (NCI protocol, SRB), LOX IMVI; conditions: Homo sapiens, 48 h
[18] = tested on: UACC-257; assay: In vitro cytotoxicity (NCI protocol, SRB), UACC-257; conditions: Homo sapiens, UACC-257, 48 h
[19] = tested on: A549/ATCC; assay: In vitro cytotoxicity (NCI protocol, SRB), A549/ATCC; conditions: Homo sapiens, A549, 48 h
[20] = tested on: human tumor cell lines; assay: In vitro cytotoxicity (NCI protocol, SRB), whole panel / mean graph midpoints; assay type: cell-based; conditions: for GI50: Homo sapiens; for Log10GI50 mean graph mid point (MG_MID) / Log10LC50 mean graph mid point (MG_MID) / Log10TGI mean graph mid point (MG_MID): mean over human tumor cell lines
Description: The mean graph midpoint values of Log10 TGI and Log10 LC50 as well as Log10 GI50 for compounds 17a, 17c, 13a, 13c and 12a is listed in Table-2. […] The mean graph midpoints of Log10 TGI and Log10 LC50 have shown similar pattern to the log10 GI50 mean graph mid points.

[21] = tested on: SW-620; assay: In vitro cytotoxicity (NCI protocol, SRB), SW-620; conditions: Homo sapiens, SW-620, 48 h
[22] = tested on: MDA-MB-231/ATCC; assay: In vitro cytotoxicity (NCI protocol, SRB), MDA-MB-231/ATCC; conditions: Homo sapiens, MDA-MB-231, 48 h
[23] = tested on: NCI-H460; assay: In vitro cytotoxicity (NCI protocol, SRB), NCI-H460; conditions: Homo sapiens, NCI-H460, 48 h
[24] = tested on: MALME-3M; assay: In vitro cytotoxicity (NCI protocol, SRB), MALME-3M; conditions: Homo sapiens, 48 h
[25] = tested on: SN12C; assay: In vitro cytotoxicity (NCI protocol, SRB), SN12C; conditions: Homo sapiens, 48 h
[26] = tested on: SNB -19; assay: In vitro cytotoxicity (NCI protocol, SRB), SNB -19; conditions: Homo sapiens, SNB-19, 48 h
[27] = tested on: MDA-MB-435; assay: In vitro cytotoxicity (NCI protocol, SRB), MDA-MB-435 (melanoma panel); conditions: Melanoma MDA-MB-435, 48 h exposure
[28] = tested on: SNB -75; assay: In vitro cytotoxicity (NCI protocol, SRB), SNB -75; conditions: Homo sapiens, SNB-75, 48 h
[29] = tested on: HCT-116; assay: In vitro cytotoxicity (NCI protocol, SRB), HCT-116; conditions: Homo sapiens, HCT-116, 48 h
[30] = tested on: COLO-205; assay: In vitro cytotoxicity (NCI protocol, SRB), COLO-205; conditions: Homo sapiens, COLO 205, 48 h
[31] = against all the cancer cell lines, read-out: GI50 values range
[32] = against fifty eight cell lines in nine cancer cell panels, read-out: GI50 values
[33] = against almost 50 above cancer cell lines
[34] = against almost all tumor cell lines, read-out: GI50 values

Row | Structure (SMILES) | GI50 [1] [nM] | GI50 [2] [nM] | GI50 [3] [nM] | GI50 [4] [nM] | GI50 [5] [nM] | GI50 [6] [nM] | GI50 [7] [nM] | GI50 [8] [nM] | GI50 [9] [nM] | GI50 [10] [nM] | GI50 [11] [nM] | GI50 [12] [nM] | GI50 [13] [nM] | GI50 [14] [nM] | GI50 [15] [nM] | GI50 [16] [nM] | GI50 [17] [nM] | GI50 [19] [nM] | GI50 [20, 32] [nM] | Log10GI50 mean graph mid point (MG_MID) [20] | other results
1 | COc1ccc(S(=O)(=O)Nc2cc(/C=C\c3cc(OC)c(OC)c(OC)c3)ccc2OC)cc1 [12a, (Z)-4-methoxy-N-(2-methoxy-5-(3,4,5-trimethoxystyryl)phenyl)benzenesulfonamide] | 168 | 51.5 | 166 | 12800 | 131 | 442 | 126 | 103 | 58.7 | 73.8 | 76.8 | 319 | 176 | 480 | 361 | 97.4 | 272 | 159 | 20 to 50 | −6.86 | GI50 [18]: 2980 nM; GI50 [20, 31]: 18 to 50 nM; cytotoxicity [20, 33]: significant cytotoxicity; Log10LC50 mean graph mid point (MG_MID) [20]: −4.06; Log10TGI mean graph mid point (MG_MID) [20]: −4.49; GI50 [21]: 78.5 nM; GI50 [22]: 399 nM; GI50 [23]: 178 nM; GI50 [24]: 52.7 nM; GI50 [25]: 682 nM; GI50 [26]: 352 nM; GI50 ([27]; Homo sapiens, MDA-MB-435, 48 h): 27.4 nM; GI50 [28]: 70.8 nM; GI50 [29]: 79.7 nM; GI50 [30]: 38.3 nM
2 | COc1ccc(S(=O)(=O)Nc2cc(/C=C\c3cc(OC)c(OC)c(OC)c3)cc(OC)c2OC)cc1 [13a, (Z)—N-(2,3-dimethoxy-5-(3,4,5-trimethoxystyryl)phenyl)-4-methoxybenzenesulfonamide] | 42 | 53.1 | 57.7 | 27300 | 63.6 | 39.1 | 25.3 | 30.1 | 57 | 39.7 | 65 | 45.9 | 32.9 | 59.3 | 57.9 | 1750 | 50 | 47.4 | 20 to 50 | −7.2 | GI50 [18]: 4100 nM; GI50 [20, 31]: 18 to 50 nM; GI50 [20, 34]: < 50 nM; cytotoxicity [20, 33]: significant cytotoxicity; Log10LC50 mean graph mid point (MG_MID) [20]: −4.07; Log10TGI mean graph mid point (MG_MID) [20]: −4.55; GI50 [21]: 43.9 nM; GI50 [22]: 47.9 nM; GI50 [23]: 36.7 nM; GI50 [24]: 12600 nM; GI50 [25]: 69.8 nM; GI50 [26]: 60.1 nM; GI50 ([27]; Homo sapiens, MDA-MB-435, 48 h): 21.1 nM; GI50 [28]: 26.5 nM; GI50 [29]: 35 nM; GI50 [30]: 21.4 nM
3 | COc1cc(/C=C\c2cc(OC)c(OC)c(OC)c2)cc(NS(=O)(=O)c2ccc(Cl)cc2)c1OC [13c, (Z)-4-chloro-N-(2,3-dimethoxy-5-(3,4,5-trimethoxystyryl)phenyl)benzenesulfonamide] | 271 | 374 | 914 | 13500 | 696 | 1980 | 303 | 391 | 586 | 572 | 779 | 387 | 388 | 710 | 666 | 720 | 566 | 716 | 20 to 50 | −6.27 | GI50 [18]: 12500 nM; cytotoxicity [20, 33]: significant cytotoxicity; Log10LC50 mean graph mid point (MG_MID) [20]: −4.03; Log10TGI mean graph mid point (MG_MID) [20]: −4.42; GI50 [21]: 343 nM; GI50 [22]: 1160 nM; GI50 [23]: 364 nM; GI50 [25]: 750 nM; GI50 [26]: 745 nM; GI50 ([27]; Homo sapiens, MDA-MB-435, 48 h): 188 nM; GI50 [28]: 227 nM; GI50 [29]: 469 nM; GI50 [30]: 252 nM
4 | COc1ccc(S(=O)(=O)Nc2c(/C=C\c3cc(OC)c(OC)c(OC)c3)ccc(OC)c2O)cc1 [17a, (Z)—N-(2-hydroxy-3-methoxy-6-(3,4,5-trimethoxystyryl)phenyl)-4-methoxybenzenesulfonamide] | 43.9 | 51.6 | 54 | 4130 | 61.9 | 31.6 | 29.3 | 31.3 | 61.3 | 35.5 | 73.2 | 46.9 | 30.1 | 52 | 375 | 1600 | 45.5 | 45.9 | 20 to 50 | −7.17 | GI50 [20, 31]: 18 to 50 nM; GI50 [20, 34]: < 50 nM; cytotoxicity [20, 33]: significant cytotoxicity; Log10LC50 mean graph mid point (MG_MID) [20]: −4.05; Log10TGI mean graph mid point (MG_MID) [20]: −4.55; GI50 [21]: 40.8 nM; GI50 [22]: 50.3 nM; GI50 [23]: 36.8 nM; GI50 [24]: 1510 nM; GI50 [25]: 86.9 nM; GI50 [26]: 60.2 nM; GI50 ([27]; Homo sapiens, MDA-MB-435, 48 h): 19 nM; GI50 [27]: 19.2 nM; GI50 [28]: 25.5 nM; GI50 [29]: 32 nM; GI50 [30]: 406 nM
5 | COc1ccc(/C=C\c2cc(OC)c(OC)c(OC)c2)c(NS(=O)(=O)c2ccc(Cl)cc2)c1O [17c, (Z)-4-chloro-N-(2-hydroxy-3-methoxy-6-(3,4,5-trimethoxystyryl)phenyl)benzenesulfonamide] | 36.7 | 54.2 | 379 | 24900 | 73.9 | 429 | 37 | 91.3 | 83.8 | 127 | 998 | 207 | 159 | 288 | 572 | 2360 | 153 | 270 | 20 to 50 | −6.71 | GI50 [18]: 14200 nM; cytotoxicity [20]: significant cytotoxicity; GI50 [20, 31]: 18 to 50 nM; Log10LC50 mean graph mid point (MG_MID) [20]: −4.07; Log10TGI mean graph mid point (MG_MID) [20]: −4.66; GI50 [21]: 69.4 nM; GI50 [22]: 206 nM; GI50 [23]: 316 nM; GI50 [25]: 708 nM; GI50 [26]: 807 nM; GI50 ([27]; Homo sapiens, MDA-MB-435, 48 h): 22.2 nM; GI50 [28]: 33.1 nM; GI50 [29]: 114 nM; GI50 [30]: 1740 nM
